Key:
[1] = target: Epidermal growth factor receptor (Homo sapiens, UniProt P00533); test: Inhibition of EGFR by homogeneous time-resolved fluorescence assay
[2] = target: Receptor tyrosine-protein kinase erbB-2 (Homo sapiens, UniProt P04626); test: Inhibition of HER2 by homogeneous time-resolved fluorescence assay
[3] = Lipophilicity log P of the compound; format: physicochemical; details: octanol/water
[4] = Aqueous solubility of the compound at pH 6.8; format: physicochemical
BT-474 = test: Antiproliferative activity against human BT474 cells by methylene blue staining method

Receptor tyrosine-protein kinase erbB-2, sequence (P04626 whole entry): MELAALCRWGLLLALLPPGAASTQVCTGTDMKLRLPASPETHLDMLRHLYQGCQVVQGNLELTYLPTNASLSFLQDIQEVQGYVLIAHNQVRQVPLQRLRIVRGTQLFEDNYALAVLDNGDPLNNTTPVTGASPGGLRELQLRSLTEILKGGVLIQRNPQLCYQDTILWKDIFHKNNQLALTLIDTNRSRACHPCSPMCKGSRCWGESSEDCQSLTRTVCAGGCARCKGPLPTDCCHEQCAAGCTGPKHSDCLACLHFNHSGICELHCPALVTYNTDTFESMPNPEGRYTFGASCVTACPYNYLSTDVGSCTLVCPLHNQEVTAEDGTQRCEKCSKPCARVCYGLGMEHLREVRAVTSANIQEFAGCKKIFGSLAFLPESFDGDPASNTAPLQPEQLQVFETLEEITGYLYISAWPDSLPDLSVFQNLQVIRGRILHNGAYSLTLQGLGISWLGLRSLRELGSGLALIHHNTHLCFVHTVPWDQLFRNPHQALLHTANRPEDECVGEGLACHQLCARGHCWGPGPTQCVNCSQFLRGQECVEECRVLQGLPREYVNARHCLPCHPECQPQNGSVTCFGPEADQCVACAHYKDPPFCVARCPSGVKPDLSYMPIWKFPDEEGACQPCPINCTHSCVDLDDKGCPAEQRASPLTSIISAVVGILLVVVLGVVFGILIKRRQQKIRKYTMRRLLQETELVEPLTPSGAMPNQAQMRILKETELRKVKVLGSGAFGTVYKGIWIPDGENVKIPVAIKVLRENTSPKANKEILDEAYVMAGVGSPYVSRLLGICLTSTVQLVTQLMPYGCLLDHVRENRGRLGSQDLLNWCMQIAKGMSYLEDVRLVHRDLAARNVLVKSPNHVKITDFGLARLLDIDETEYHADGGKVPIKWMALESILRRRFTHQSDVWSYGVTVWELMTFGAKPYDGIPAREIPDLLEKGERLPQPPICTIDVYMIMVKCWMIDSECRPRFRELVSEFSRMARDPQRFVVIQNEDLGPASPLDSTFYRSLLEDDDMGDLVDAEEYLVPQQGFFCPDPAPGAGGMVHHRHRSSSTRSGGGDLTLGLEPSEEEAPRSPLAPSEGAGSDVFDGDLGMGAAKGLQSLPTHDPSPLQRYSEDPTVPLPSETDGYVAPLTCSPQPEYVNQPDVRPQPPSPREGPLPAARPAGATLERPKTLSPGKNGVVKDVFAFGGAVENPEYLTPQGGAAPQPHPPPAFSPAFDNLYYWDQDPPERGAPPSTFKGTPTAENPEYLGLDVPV
Epidermal growth factor receptor, sequence (P00533 whole entry): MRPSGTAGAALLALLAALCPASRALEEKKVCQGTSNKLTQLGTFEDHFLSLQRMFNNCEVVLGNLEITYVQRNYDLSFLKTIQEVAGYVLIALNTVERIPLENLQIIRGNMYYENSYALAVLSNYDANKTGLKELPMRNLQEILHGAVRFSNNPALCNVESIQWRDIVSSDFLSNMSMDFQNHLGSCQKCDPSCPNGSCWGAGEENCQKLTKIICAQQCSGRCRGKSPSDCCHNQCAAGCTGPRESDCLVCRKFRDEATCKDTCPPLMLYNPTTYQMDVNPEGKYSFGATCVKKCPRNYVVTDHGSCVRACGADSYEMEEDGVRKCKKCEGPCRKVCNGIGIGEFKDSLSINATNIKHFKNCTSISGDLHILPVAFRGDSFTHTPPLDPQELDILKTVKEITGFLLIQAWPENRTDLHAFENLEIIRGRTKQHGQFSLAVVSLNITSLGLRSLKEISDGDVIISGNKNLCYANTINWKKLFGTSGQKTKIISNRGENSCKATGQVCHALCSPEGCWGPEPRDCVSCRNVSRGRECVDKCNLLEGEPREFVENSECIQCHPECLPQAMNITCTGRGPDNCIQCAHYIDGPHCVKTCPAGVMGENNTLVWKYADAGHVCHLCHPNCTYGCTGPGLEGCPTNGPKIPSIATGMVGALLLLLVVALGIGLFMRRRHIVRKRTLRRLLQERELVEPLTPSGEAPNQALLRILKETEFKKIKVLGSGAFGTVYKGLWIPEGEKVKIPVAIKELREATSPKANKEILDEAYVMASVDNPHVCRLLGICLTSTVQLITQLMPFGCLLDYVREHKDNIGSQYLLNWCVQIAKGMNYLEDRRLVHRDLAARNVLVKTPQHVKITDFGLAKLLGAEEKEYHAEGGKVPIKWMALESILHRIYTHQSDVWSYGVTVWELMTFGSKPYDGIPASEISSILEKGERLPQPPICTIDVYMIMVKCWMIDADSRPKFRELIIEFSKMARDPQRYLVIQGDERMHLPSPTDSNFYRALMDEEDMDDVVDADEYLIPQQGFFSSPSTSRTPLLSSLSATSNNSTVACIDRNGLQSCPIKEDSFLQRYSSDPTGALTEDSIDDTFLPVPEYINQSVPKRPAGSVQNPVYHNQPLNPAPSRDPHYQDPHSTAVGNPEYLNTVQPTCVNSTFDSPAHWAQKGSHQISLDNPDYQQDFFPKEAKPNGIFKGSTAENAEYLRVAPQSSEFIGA

| Compound | IC50 [1] [µM] | IC50 [2] [µM] | logP [3] | solubility ([4]; buffer) [µM] | IC50 (BT-474) [µM] | solubility ([4]; aqueous, read-out: solubility) [µM] |
| --- | --- | --- | --- | --- | --- | --- |
| Cc1ncnc(Nc2ccc(OCc3cccc(F)c3)c(Cl)c2)c1C#CCCN1CCOCC1 | 0.013 | 0.074 |  |  |  |  |
| CS(=O)(=O)CCNCc1ccc(-c2ccc3ncnc(Nc4ccc(OCc5cccc(F)c5)c(Cl)c4)c3c2)o1.Cc1ccc(S(=O)(=O)O)cc1.Cc1ccc(S(=O)(=O)O)cc1.O [LAPATINIB DITOSYLATE] |  |  | 6.67 | 24 | 0.1 |  |
| Cc1ncnc(Nc2ccc(OCc3cccc(F)c3)c(Cl)c2)c1/C=C(\F)C(=O)NCCN1CCOCC1 |  | 0.078 |  |  |  |  |
| Cc1ncnc(Nc2ccc(OCc3cccc(F)c3)c(Cl)c2)c1/C=N/OCCN1CCOCC1 | 0.068 | 0.74 |  |  |  |  |
| Cc1ncnc(Nc2ccc(OCc3cccc(F)c3)c(Cl)c2)c1/C=C(\F)C(=O)NCCS(C)(=O)=O | 0.019 | 0.071 |  |  |  |  |
| CCN1CCN(CCCC#Cc2c(C)ncnc2Nc2ccc(OCc3cccc(F)c3)c(Cl)c2)CC1 | 0.009 | 0.036 | 6.23 |  | 1.44 | > 50 |
| Fc1cccc(COc2ccc(Nc3cc(-c4ccsc4)ncn3)cc2Cl)c1 |  | 36 |  |  |  |  |
| Cc1ncnc(Nc2ccc(OCc3cccc(F)c3)c(Cl)c2)c1-c1cccc(CN2CCOCC2)c1 | 0.59 | 3.75 |  |  |  |  |
| Fc1cccc(COc2ccc(Nc3cc(-c4cccnc4)ncn3)cc2Cl)c1 | 47 | > 100 |  |  |  |  |
| Fc1cccc(COc2ccc(Nc3cc(N4CCCC4)ncn3)cc2Cl)c1 | > 100 | > 100 |  |  |  |  |
| Fc1cccc(COc2ccc(Nc3cc(Oc4ccccc4)ncn3)cc2Cl)c1 | 10 | > 100 |  |  |  |  |
| C/C(=C\c1c(C)ncnc1Nc1ccc(OCc2cccc(F)c2)c(Cl)c1)C(=O)NCCN1CCOCC1 | 0.028 | 0.081 |  |  |  |  |
| Cc1ncnc(Nc2ccc(OCc3cccc(F)c3)c(Cl)c2)c1/C=N/OCCCN1CCOCC1 | 0.065 | 1.8 |  |  |  |  |
| Cc1ncnc(Nc2ccc(OCc3cccc(F)c3)c(Cl)c2)c1C#CCCNCc1ccccc1 | 0.27 | 0.81 |  |  |  |  |
| Fc1cccc(COc2ccc(Nc3ccncn3)cc2Cl)c1 | 0.92 | 25 |  |  |  |  |
| Cc1ncnc(Nc2ccc(OCc3cccc(F)c3)c(Cl)c2)c1C#CCN1CCOCC1 | 4.13 | 5.38 |  |  |  |  |

More lines, now with the values ahead:

| IC50 [1] [µM] | IC50 [2] [µM] | logP [3] | solubility ([4]; buffer) [µM] | IC50 (BT-474) [µM] | solubility ([4]; aqueous, read-out: solubility) [µM] | Compound |
| --- | --- | --- | --- | --- | --- | --- |
| 0.64 | 2.9 |  |  |  |  | CCc1ncnc(Nc2ccc(OCc3cccc(F)c3)c(Cl)c2)c1C |
| 0.017 | 0.14 |  |  |  |  | Cc1ncnc(Nc2ccc(OCc3cccc(F)c3)c(Cl)c2)c1C |
| 0.034 | 0.15 |  |  |  |  | Cc1ncnc(Nc2ccc(OCc3cccc(F)c3)c(Cl)c2)c1C#CCCCN1CCOCC1 |
| 0.114 | 0.318 |  |  |  |  | Cc1ncnc(Nc2ccc(OCc3cccc(F)c3)c(Cl)c2)c1/C=C/C(=O)NCCN1CCOCC1 |
| 1.2 | 6.3 |  |  |  |  | Fc1cccc(COc2ccc(Nc3cc(-c4ccccc4)ncn3)cc2Cl)c1 |
| 1.1 | 6.5 |  |  |  |  | Cc1cc(Nc2ccc(OCc3cccc(F)c3)c(Cl)c2)ncn1 |
| 0.156 | 0.102 |  |  |  |  | CCN1CCN(C(=O)/C(F)=C/c2c(C)ncnc2Nc2ccc(OCc3cccc(F)c3)c(Cl)c2)CC1 |
| 0.003 | 0.019 | 5.98 |  | 1.13 | > 50 | Cc1ncnc(Nc2ccc(OCc3cccc(F)c3)c(Cl)c2)c1/C=C(\F)C(=O)NCCN1CCCC1 |
| 20 | 65 |  |  |  |  | Cc1c(Nc2ccc(OCc3cccc(F)c3)c(Cl)c2)ncnc1-c1ccccc1 |
|  | 0.095 |  |  |  |  | Cc1ncnc(Nc2ccc(OCc3cccc(F)c3)c(Cl)c2)c1C#CCCCN1CCCC1 |
| 0.24 | 0.44 | 6.96 |  | 0.394 | > 50 | Cc1ncnc(Nc2ccc(OCc3cccc(F)c3)c(Cl)c2)c1C#Cc1ccc(CN2CCOCC2)cc1 |
| 0.12 | 0.19 | 7.73 |  | 0.644 |  | Cc1ncnc(Nc2ccc(OCc3cccc(F)c3)c(Cl)c2)c1/C=C/c1ccc(CN2CCOCC2)cc1 |
|  |  |  |  |  | 2 | Cc1ncnc(Nc2ccc(OCc3cccc(F)c3)c(Cl)c2)c1/C=C/c1ccc(CN2CCOCC2)cc1.Cl |
| 0.038 | 0.07 |  |  |  |  | Cc1ncnc(Nc2ccc(OCc3cccc(F)c3)c(Cl)c2)c1C#C/C=N/OCCN1CCOCC1 |
